Source: patent US6787525B1, “Glyceryl nucleotides, method for the production thereof and their use” (priority 1998, dated 2004)

Columns and labels:
HIV = test: In-vitro anti-HIV effect: inhibition of HIV-induced cell death of T4 lymphocytes (CEM-SS), XTT; assay type: cell-based; conditions: 6 days
Description: (§1) T4 lymphocytes (cell line: CEM-SS), which are killed by HIV within two replication cycles, are used as the test system. That which is detected is the inhibition of cell death. The compound according to the invention is dissolved in DMSO and this solution is diluted with cell culture medium in the ratio 1:100. […] All the cell cultures are examined spectrophotometrically in order to quantify production of formazan. In addition to this, individual cultures are examined microscopically in order to confirm the anti-HIV activity. The virus-infected cells which have been treated with the compound according to the invention are compared with the standard on the same plate. The in-vitro anti-HIV activity data, which were determined within the context of a National Cancer Institute Developmental Therapeutics Program, are summarized in the following table.

[1] = tested on: T4 lymphocytes (cell line: CEM-SS); test: Toxicity control: uninfected T4 lymphocytes (CEM-SS) with compound only, XTT; assay type: cell-based; conditions: 6 days
Description: as §1

## CCCCCCCCCCCCCCCC(=O)Nc1ccn(C2CCC(COP(=O)(O)OCC(COP(=O)(O)OCC3OC(n4cc(C)c(=O)[nH]c4=O)CC3N=[N+]=[N-])OC(=O)CCCCCCCCCCCCCCC)O2)c(=O)n1 (racemic) [NSC 704532-F/1, N^4-palmitoyl-2′,3′-dideoxycytidylyl-(5′→1)-2-O-palmitoyl-rac-glycerylyl-(3→5′)-3′-azido-2′,3′-dideoxythymidine]
HIV; Dose 1.00 * 10^−6 molar
  Percent of control infected: 113.49%
HIV; Dose 1.00 * 10^−6 molar, HIV-infected CEM-SS
  Percent protection: 114.05%
HIV; Dose 1.00 * 10^−7 molar
  Percent of control infected: 106.07%
HIV; Dose 1.00 * 10^−7 molar, HIV-infected CEM-SS
  Percent protection: 106.32%
HIV; Dose 1.00 * 10^−8 molar
  Percent of control infected: 23.62%
HIV; Dose 1.00 * 10^−8 molar, HIV-infected CEM-SS
  Percent protection: 20.44%
HIV; Dose 1.00 * 10^−9 molar
  Percent of control infected: 4.21%
HIV; Dose 1.00 * 10^−9 molar, HIV-infected CEM-SS
  Percent protection: 0.22%
HIV; Dose 3.16 * 10^−7 molar
  Percent of control infected: 104.16%
HIV; Dose 3.16 * 10^−7 molar, HIV-infected CEM-SS
  Percent protection: 104.33%
HIV; Dose 3.16 * 10^−8 molar
  Percent of control infected: 80.22%
HIV; Dose 3.16 * 10^−8 molar, HIV-infected CEM-SS
  Percent protection: 79.40%
HIV; Dose 3.17 * 10^−9 molar
  Percent of control infected: 14.25%
HIV; Dose 3.17 * 10^−9 molar, HIV-infected CEM-SS
  Percent protection: 10.68%
HIV; Dose 3.17 * 10^−10 molar
  Percent of control infected: 5.80%
HIV; Dose 3.17 * 10^−10 molar, HIV-infected CEM-SS
  Percent protection: 1.88%
HIV; HIV-infected CEM-SS, read-out: 50% protection from infection (EC5.)
  EC50: 17.9 nM
[1]; read-out: 50% cell growth (IC50)
  IC50: > 1000 nM
[1]; Dose 1.00 * 10^−6 molar
  Percent of control uninfected: 119.96%
[1]; Dose 1.00 * 10^−7 molar
  Percent of control uninfected: 112.26%
[1]; Dose 1.00 * 10^−8 molar
  Percent of control uninfected: 99.64%
[1]; Dose 1.00 * 10^−9 molar
  Percent of control uninfected: 105.03%
[1]; Dose 3.16 * 10^−7 molar
  Percent of control uninfected: 112.02%
[1]; Dose 3.16 * 10^−8 molar
  Percent of control uninfected: 104.96%
[1]; Dose 3.17 * 10^−9 molar
  Percent of control uninfected: 101.22%
[1]; Dose 3.17 * 10^−10 molar
  Percent of control uninfected: 105.43%
